Assay results: US11220504B2, “Pyrrolo[3,2-d] pyrimidine derivatives for the treatment of viral infections and other diseases” (JANSSEN SCIENCES IRELAND UNLIMITED COMPANY, priority 2012, dated 2022)

How the values were obtained:
human TLR7 = molecular target: T1, human TLR7 (Homo sapiens, UniProt Q9NYK1); experiment: TLR7 cellular reporter assay (HEK293, NFκB-luc); assay type: cell-based; settings: HEK293 cells transfected with CMV-TLR7 and NFκB-luc, 6 hours incubation; lowest effective concentration
T1 construct: expressed in transfected cells; host or cells: HEK293 cells, transient transfection with CMV-TLR7 plasmid and NFκB-luc plasmid
T1 sequence (Q9NYK1 27-1049): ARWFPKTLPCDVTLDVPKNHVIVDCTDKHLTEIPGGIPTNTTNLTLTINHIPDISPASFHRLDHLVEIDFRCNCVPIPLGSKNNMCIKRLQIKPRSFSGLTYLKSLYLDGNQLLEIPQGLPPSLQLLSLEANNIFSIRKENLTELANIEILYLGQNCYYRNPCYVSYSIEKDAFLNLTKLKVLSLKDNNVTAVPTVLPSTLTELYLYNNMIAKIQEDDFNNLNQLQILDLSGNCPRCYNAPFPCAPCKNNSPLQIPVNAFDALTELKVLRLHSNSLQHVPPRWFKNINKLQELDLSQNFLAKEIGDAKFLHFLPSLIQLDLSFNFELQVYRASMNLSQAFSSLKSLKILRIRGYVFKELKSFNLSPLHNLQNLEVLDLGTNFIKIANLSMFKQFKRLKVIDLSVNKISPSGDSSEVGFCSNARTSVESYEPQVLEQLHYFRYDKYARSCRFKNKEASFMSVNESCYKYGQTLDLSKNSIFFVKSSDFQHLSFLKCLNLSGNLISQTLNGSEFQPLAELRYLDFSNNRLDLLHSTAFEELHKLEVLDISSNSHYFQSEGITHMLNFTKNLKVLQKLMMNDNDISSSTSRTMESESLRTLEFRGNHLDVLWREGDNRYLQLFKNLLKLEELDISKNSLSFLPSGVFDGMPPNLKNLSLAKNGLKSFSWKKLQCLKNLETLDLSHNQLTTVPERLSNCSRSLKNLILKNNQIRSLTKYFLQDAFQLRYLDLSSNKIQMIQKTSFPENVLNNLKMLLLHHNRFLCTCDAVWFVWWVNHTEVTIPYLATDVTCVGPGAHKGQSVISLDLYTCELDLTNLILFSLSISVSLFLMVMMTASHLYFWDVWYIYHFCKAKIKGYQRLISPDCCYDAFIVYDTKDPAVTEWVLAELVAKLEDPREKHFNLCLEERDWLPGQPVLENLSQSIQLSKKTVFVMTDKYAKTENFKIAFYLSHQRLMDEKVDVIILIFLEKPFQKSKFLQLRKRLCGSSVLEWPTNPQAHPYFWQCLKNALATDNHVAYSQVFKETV
How it was run: (§1)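 HEK293 cells transiently transfected with receptor expression vector plus NFκB-luciferase reporter, exposed to compound (added in 4% DMSO) for 6 hours at 37° C, 5% CO2. Luciferase activity measured by luminescence; dose-response curves from quadruplicate measurements.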

human TLR8 = molecular target: T2, human TLR8 (Homo sapiens, UniProt Q9NR97); experiment: TLR8 cellular reporter assay (HEK293, NFκB-luc); assay type: cell-based; settings: HEK293 cells transfected with CMV-TLR8 and NFκB-luc, 6 hours incubation; lowest effective concentration
T2 construct: expressed in transfected cells; host or cells: HEK293 cells, transient transfection with TLR8 plasmid and NFκB-luc plasmid
T2 sequence (Q9NR97 27-1041): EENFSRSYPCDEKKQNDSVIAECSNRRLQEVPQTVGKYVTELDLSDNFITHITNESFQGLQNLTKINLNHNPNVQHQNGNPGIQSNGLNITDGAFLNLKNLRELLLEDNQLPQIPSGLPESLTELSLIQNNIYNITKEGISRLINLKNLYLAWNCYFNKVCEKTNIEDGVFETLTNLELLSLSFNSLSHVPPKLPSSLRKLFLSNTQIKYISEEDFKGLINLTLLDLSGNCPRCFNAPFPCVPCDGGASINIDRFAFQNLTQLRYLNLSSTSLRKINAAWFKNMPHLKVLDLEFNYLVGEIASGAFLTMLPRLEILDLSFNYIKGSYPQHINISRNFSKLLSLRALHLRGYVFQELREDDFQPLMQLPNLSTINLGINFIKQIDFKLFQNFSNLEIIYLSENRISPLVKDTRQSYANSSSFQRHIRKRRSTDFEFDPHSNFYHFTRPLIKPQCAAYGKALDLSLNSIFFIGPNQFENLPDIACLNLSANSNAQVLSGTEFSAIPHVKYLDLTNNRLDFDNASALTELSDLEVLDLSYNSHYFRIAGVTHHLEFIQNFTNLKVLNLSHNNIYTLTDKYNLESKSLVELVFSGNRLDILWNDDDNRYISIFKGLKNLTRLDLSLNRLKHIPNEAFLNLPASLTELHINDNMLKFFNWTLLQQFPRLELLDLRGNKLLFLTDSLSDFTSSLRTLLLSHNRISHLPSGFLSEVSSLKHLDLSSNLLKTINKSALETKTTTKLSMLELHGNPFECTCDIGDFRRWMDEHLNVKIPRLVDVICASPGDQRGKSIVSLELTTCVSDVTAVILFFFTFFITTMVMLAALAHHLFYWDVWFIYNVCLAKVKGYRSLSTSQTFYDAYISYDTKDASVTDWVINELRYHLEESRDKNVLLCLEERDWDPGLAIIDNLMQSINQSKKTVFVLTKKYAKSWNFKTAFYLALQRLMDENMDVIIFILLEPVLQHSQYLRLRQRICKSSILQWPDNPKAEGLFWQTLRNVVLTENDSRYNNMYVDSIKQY
How it was run: as §1

[1] = test system: interferon-stimulated responsive elements (ISRE); experiment: Activation of ISRE promoter elements by conditioned media from PBMC (HEK-ISREluc); assay type: cell-based, human; settings: Homo sapiens; conditioned media from PBMC transferred to HEK-ISREluc cells, 24 hours; lowest effective concentration; read-out: PBMC LEC
How it was run: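 Human PBMCs (≥2 donors, RPMI + 10% human AB serum, 2×10^5 cells/well) incubated overnight with compound; supernatant transferred to HEK293 cells stably carrying pISRE-Luc for 24 h, then luciferase read. LEC = compound concentration on PBMCs giving luciferase signal at least two-fold above assay SD; recombinant IFN-α-2a standard.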

TLR7 LEC (human TLR7) | TLR8 LEC (human TLR8) | SMILES | minimal effective concentration [1]
0.01 µM | >25 µM | CCC[C@@H](CCO)Nc1nc(N)nc2c(F)cn(Cc3ccccc3)c12 [Compound 94] | 0.01 µM
0.01 µM | 3.26 µM | CCCC[C@@H](CCO)Nc1nc(N)nc2c(F)cn(Cc3ccccc3)c12 [Compound 95] | 0.007 µM
<0.01 µM | 0.23 µM | CCCCNc1nc(N)nc2ccn(Cc3c(OC)cccc3OC)c12 [Compound 97] | 0.001 µM
<0.01 µM | 0.22 µM | CCCC(C)Nc1nc(N)nc2ccn(Cc3c(OC)cccc3OC)c12 (stereo not drawn) [Compound 98] | 0.001 µM
<0.01 µM | 0.1 µM | CCCC[C@@H](CCO)Nc1nc(N)nc2ccn(Cc3c(OC)cccc3OC)c12 [Compound 99] | < 0.001 µM
<0.01 µM | 0.04 µM | CCC[C@@H](CO)Nc1nc(N)nc2ccn(Cc3c(OC)cccc3OC)c12 [Compound 100] | < 0.001 µM
<0.01 µM | 0.08 µM | CCCC[C@@H](CO)Nc1nc(N)nc2ccn(Cc3c(OC)cccc3OC)c12 [Compound 101] | < 0.001 µM
<0.01 µM | 0.14 µM | CCC[C@@H](CCO)Nc1nc(N)nc2ccn(Cc3c(OC)cccc3OC)c12 [Compound 102] | < 0.001 µM
0.032 µM | >25 µM | COCCNc1nc(N)nc2ccn(Cc3ccccc3OC)c12 [Compound 103] | 0.018 µM
11.960 µM | >25 µM | CC(Nc1nc(N)nc2ccn(C)c12)c1ccccn1 (stereo not drawn) [Compound 104] | 1.98 µM
0.827 µM | >25 µM | COCCn1ccc2nc(N)nc(NC(C)c3ccccn3)c21 (stereo not drawn) [Compound 105] | 0.194 µM
2.030 µM | >25 µM | COCCNc1nc(N)nc2ccn(Cc3cccc(OC)c3)c12 [Compound 107] | 2.13 µM
0.126 µM | >25 µM | CC(C)c1cc(CNc2nc(N)nc3ccn(Cc4cscn4)c23)no1 [Compound 108] | 0.07 µM
0.005 µM | 7.17 µM | CCC[C@@H](CCO)Nc1nc(N)nc2ccn(Cc3cccc(OC)c3)c12 [Compound 109] | 0.003 µM
0.002 µM | >25 µM | COc1ccccc1Cn1ccc2nc(N)nc(NCc3cc(C)on3)c21 [Compound 110] | 0.001 µM
0.637 µM | >25 µM | COCCNc1nc(N)nc2ccn(Cc3cccc(CN4CCCC4)c3)c12 [Compound 111] | 0.293 µM
0.741 µM | >25 µM | Cc1cc(CNc2nc(N)nc3ccn(Cc4ccncc4)c23)no1 [Compound 112] | 0.209 µM

TLR7 LEC (human TLR7) | TLR8 LEC (human TLR8) | SMILES | minimal effective concentration [1]
1.320 µM | >25 µM | COCCNc1nc(N)nc2ccn(Cc3cccc(C)n3)c12 [Compound 113] | 0.807 µM
0.241 µM | 7.93 µM | COCCNc1nc(N)nc2ccn(Cc3ncccc3OC)c12 [Compound 115] | 0.079 µM
0.049 µM | >25 µM | CCCCNc1nc(N)nc2ccn(Cc3cccc(CN4CCCC4)c3)c12 [Compound 116] | 0.022 µM
2.950 µM | >22.7 µM | COCCNc1nc(N)nc2ccn(Cc3ccc(C(F)(F)F)cn3)c12 [Compound 117] | 1.43 µM
1.650 µM | >25 µM | COCCNc1nc(N)nc2ccn(Cc3ccncc3)c12 [Compound 118] | 3.01 µM
3.220 µM | >25 µM | COCCNc1nc(N)nc2ccn(Cc3cc(OC)ccn3)c12 [Compound 120] | 2.16 µM
0.172 µM | >25 µM | COCCNc1nc(N)nc2ccn(Cc3ccncc3OC)c12 [Compound 121] | 0.046 µM
0.026 µM | >25 µM | COc1cnccc1Cn1ccc2nc(N)nc(NCc3cc(C)on3)c21 [Compound 123] | 0.002 µM
0.342 µM | >25 µM | COCCn1ccc2nc(N)nc(NCc3cc(C)on3)c21 [Compound 128] | 0.062 µM
0.670 µM | >25 µM | CCOc1ccccc1Cn1ccc2nc(N)nc(NCCOC)c21 [Compound 129] | 0.122 µM
1.940 µM | >25 µM | CCCCNc1nc(N)nc2ccn(Cc3ccccc3OC(F)(F)F)c12 [Compound 130] | 0.804 µM
5.99 µM | >25 µM | COCCNc1nc(N)nc2ccn(Cc3cscn3)c12 [Compound 132] | 0.879 µM
0.07 µM | >25 µM | CCCCNc1nc(N)nc2ccn(Cc3ccccc3OCC)c12 [Compound 133] | 0.023 µM
1.20 µM | >25 µM | CCCCNc1nc(N)nc2ccn(Cc3cc(OC4CCOC4)c(OC)cn3)c12 (stereo not drawn) [Compound 134] | 0.104 µM
12.5 µM | >25 µM | COCCNc1nc(N)nc2ccn(Cc3cc(OC4CCOC4)c(OC)cn3)c12 (stereo not drawn) [Compound 135] | 4.05 µM
13.8 µM | >25 µM | CC(C)OCCNc1nc(N)nc2ccn(Cc3ccccn3)c12 [Compound 137] | 2.03 µM
1.41 µM | >25 µM | Nc1nc(NCC2CCCO2)c2c(ccn2Cc2ccccn2)n1 (stereo not drawn) [Compound 139] | 0.588 µM
